Entries after “also recorded” stand apart in the source; their conditions may differ.

This is an account of results in patent US10508147B2, “Anti-nodal antibodies and methods of using same” (ANN AND ROBERT H. LURIE CHILDREN'S HOSPITAL OF CHICAGO, priority 2014, dated 2019).

Assay [1] relates to A375SM human melanoma cell line. The assay can be described thus: Western blot of A375SM cells treated with BRAFi (dabrafenib) or 3D1. Type of assay: cell-based. Conditions: 72 hr. The method, then:
To determine the level of Nodal expression in brain, kidney, liver, pancreas, heart and skeletal muscle ready to use adult tissue extracts for Western blotting (WB) were purchased from Santa Cruz Biotechnology. For WB experiments of cell lines, whole cell lysates were prepared and quantified. SDS-PAGE gel electrophoresis and WB were performed using standard techniques. PVDF membranes were blocked in 5% non-fat milk or 5% BSA and antibodies diluted in either 5% non-fat milk or 5% bovine serum albumin overnight at 4° C., depending on the manufacturer's recommendations. Signal was detected using West Pico chemiluminescence reagent (Thermo Fisher) and exposure to x-ray film.
In general terms: Immunoblotting shows a protein as a band on a membrane.

For assay [2], the system named is A375SM human metastatic melanoma cells. The assay can be described thus: A375SM orthotopic xenograft in Nude mice. Type of assay: in vivo. The method, then:
Experiments were carried out to determine the in vivo effects of 3D1 mAb on primary melanoma. To this end, 500,000 C8161 cells were injected subcutaneously in Nude mice. Palpable tumors were then injected directly with either 700 μg of total 3D1 mAb or IgG control antibody (alternate day intratumoral injection of 100 μg over 14 days). Mice were then sacrificed and subcutaneous tumors harvested and processed as previously described. To evaluate the effect of 3D1 mAb in the presence of the BRAF(V600E) mutation, a third orthotopic xenograft model was established in Nude mice via subcutaneous injection of approximately 150,000 A375SM human metastatic melanoma cells. Mice were treated IP with 3D1 mAb or IgG control, as described above, or 3 mg/kg of dabrafenib.
Four micron thick, formalin fixed, paraffin embedded tissue sections were prepared and immunohistochemistry was carried out on a Dako Plus autostainer (DAKO, Inc, Carpenteria, Calif.). Following antigen retrieval and blocking steps, sections were incubated in primary antibody for 60 mins, followed by appropriate biotinylated secondary antibody (Biocare Medical, Conrad, Calif.), and then streptavidin-horseradish peroxidase (Thermo Scientific Lab Vision). Color was developed with 3,3′-diaminobenzidine substrate (Thermo Scientific Lab Vision) and sections were counterstained with hematoxylin (Biocare Medical, LLC). As a negative control, adjacent serial sections were incubated with species appropriate irrelevant IgG (Jackson ImmunoResearch Labs) at the same concentration as primary antibodies. Similar to the lung tumor burden evaluation described above, mean percentage of positive staining±SEM was determined by 2 different observers, each calculating the ratio of positive cells/total number of cells×100 for 4 separate high power fields (63× objective) from at least 2 different mice per group.

In another assay the test system is 3D1 mAb. The assay is described as follows: ELISA epitope mapping and specificity assay of coated peptides probed with 3D1. It counts as binding, mouse. Conditions: peptides coated at 1.0 μg/mL; 3D1 mAb 1.0 μg/mL. The method, then: Residues underlying the binding between 3D1 and Nodal were investigated by epitope mapping using a set of Nodal synthetic peptides (See FIG. 9). […] Peptides were immobilized at 1 μg/mL and probed with 3D1 at […]. Data were normalized to the binding of the peptide hNODAL (44-69) wild-type (WT). […] Most interactions were established with C43, P46, V47, E49, E50. The effect of Y58 can be on the conformation of the peptide.
Peptides used for the epitope mapping and for the specificity assay of the 3D1 mAb were coated at 1.0 μg/mL diluted in PBS; 3D1 mAb, dissolved in PBS, was used as primary antibody at 1.0 μg/mL.
On the technique in general: In an ELISA, binding on a coated surface is turned into a signal by an enzyme label.

The subject of another assay is endogenous Nodal. The assay is described as follows: Western blot competition between 3D1 antigen peptide and endogenous Nodal in human embryonic stem cell lysates. It counts as binding. As to conditions: 3D1 4 μg/mL, hNodal(44-56) 10 μg/mL; H9 and H14 hESC lysates. The method, then:
Thirty micrograms of H9 and H14 human embryonic stem cell total protein lysates, obtained as previously described, were separated on a 15% SDS-PAGE gel under reducing conditions and the resolved proteins were transferred onto a PVDF membrane. 50 ng of rhNodal protein were used as positive control. A Western blotting procedure was conducted: membranes were blocked, then probed with the 3D1 alone at 4.0 μg/mL in 2.5% NFDM in TBS-T and with the 3D1 mAb at 4.0 μg/mL pre-incubated with its antigen, the hNodal(44-56) peptide at 10 μg/mL. […] Blots were developed with Enhanced Chemiluminescence Western Blot Substrate (Pierce, Rockford, Ill., USA) following the manufacturer's instructions and were acquired by using a Chemidoc XRS video densitometer (Bio-Rad, Hercules, Calif., USA).

In the case of `CC(C)(C)c1nc(-c2cccc(NS(=O)(=O)c3c(F)cccc3F)c2F)c(-c2ccnc(N)n2)s1` [dabrafenib], the Nodal expression result in assay [1] is “relatively unaffected; also recorded: only minimally affected”. Moreover, the “ERK1/2 activity (P-ERK1/2)” value in assay [1] (dabrafenib 10 nM) is “significantly reduced”. In assay [2] (IHC, N=4), the “mean percentage (±SEM) of nuclear P-Smad2” value is 68.7%±6.3%. Moreover, in assay [2] (after 8 days, vs IgG control), the tumor volumes result is listed as “trend towards reduced tumor volumes”.
Turning to “CEGECPNPVGEEFHPTNHAYIQSLLKRYQPHRVPSTC [hNodal(39-75)]”, the “ELISA signal for binding to 3D1” value in the assay with 3D1 mAb is recorded as “bound with similar efficiency”.
Consider PNPVGEEFHPTNH [hNodal(44-56)], for which the “ELISA signal for binding to 3D1” value with 3D1 mAb is on record as “strongest signal”. Further, the “staining of endogenous Nodal by 3D1 after pre-incubation with the peptide” value in the assay with endogenous Nodal is listed as “no longer detectable”.
